Assay results from patent publication US11912699B2, “Tau-protein targeting compounds and associated” (Arvinas Operations, Inc., priority 2019, dated 2024).
Read-outs that look alike come from different tables or passages of the source.

Target: T1, Tau P301L (Homo sapiens, UniProt P10636, P618L)
T1 construct: expressed in transfected cells
Assay: In vitro tau degradation assay in CHOK1 Tau P301L cells (sarkosyl insoluble tau, WES)
Type: cell-based
Settings: CHO-K1, relative to DMSO doxycycline control, read-out: Tau Protein Degradation effect at 1 μM
Experimental: Exemplary bifunctional molecules of the present disclosure are represented by the structures in Table 1, which includes associated data. In vitro tau protein degradation data in CHOK1 Tau P301L cells, as described below, is reported based on the remaining tau protein in the sarkosyl insoluble pellet following treatment of cells for 48 hours with test compound at the 1 μM concentration where the last 24 hours doxycycline was removed. The data are represented relative to DMSO doxycycline control: • A ≤50% of tau protein remaining (>50% of tau protein degraded) • B >50% of tau protein remaining ([…] of tau protein degraded)
Data for compounds in Table 1 was generated using in vitro tau Degradation Assay protocol as described in Methods for FIGS. 2A and 2B below.
FIGS. 2A and 2B. (2A) Tau expression was induced by addition (+) of doxycycline (1 μg/ml) to ChoK1-Tau P301L clone D1.
In vitro tau Degradation Assay for FIGS. 2A and 2B. T-Rex CHOK1 cells are maintained in Ham's F-12 Nutrient Mix (ThermoFisher) plus 10% Fetal Bovine Serum Tetracycline Negative (Corning) with 10 ug/mL Blasticidin S HCl (Gibco) and 200 ug/mL Zeocin (100 mg/mL, Invitrogen). A stable clone expressing Tau P301L in the presence of doxycycline (1 μg/ml), clone D1 was selected. Compounds were diluted to indicated concentrations and used to treat cells for the indicated times. Cells were harvested from either 96, 24, 6, or 10 cm dishes coated with Poly-D-Lysine (Corning) in ice cold PBS or Buffer H+HALT Protease and phosphatase inhibitors (Thermofisher). Sarkosyl Insoluble tau was isolated as described in Eckermann et al. and Greenberg and Davies, accordingly. WES™ capillary electrophoresis analysis was performed on the Sarkosyl Insoluble tau fraction using Tau1 antibody (Milipore) unless otherwise indicated, as specified in the manufacturers specification (ProteinSimple).

[1] = remaining tau protein in sarkosyl insoluble pellet, CHOK1 Tau P301L cells treated 48 hours with test compound at 1 μM, doxycycline removed for the last 24 hours
[2] = CHOK1 Tau P301L cells, remaining tau in sarkosyl insoluble pellet, 48 hours with test compound at 1 μM, doxycycline removed for last 24 hours

T1 sequence (P10636 1-441 isoform P10636-8 P301L): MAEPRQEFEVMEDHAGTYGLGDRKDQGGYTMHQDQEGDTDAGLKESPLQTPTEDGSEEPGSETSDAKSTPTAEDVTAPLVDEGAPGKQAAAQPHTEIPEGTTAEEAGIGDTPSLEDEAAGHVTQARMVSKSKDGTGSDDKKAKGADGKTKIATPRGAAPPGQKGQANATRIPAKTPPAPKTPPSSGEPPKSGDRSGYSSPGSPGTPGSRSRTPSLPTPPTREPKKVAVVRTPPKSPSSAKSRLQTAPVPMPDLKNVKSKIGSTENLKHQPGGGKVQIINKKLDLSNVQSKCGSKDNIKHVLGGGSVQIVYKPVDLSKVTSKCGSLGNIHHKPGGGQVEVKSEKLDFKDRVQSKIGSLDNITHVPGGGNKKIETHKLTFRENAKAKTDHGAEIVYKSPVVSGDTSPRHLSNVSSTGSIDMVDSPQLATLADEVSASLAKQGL

SMILES	remaining activity at 1 µM [1] [%]	remaining activity at 1 µM [2] [%]
Cn1c2ccncc2c2ccc(-c3ccc(O[C@H]4C[C@H](OC5CCN(CCCOc6ccc7c(c6)C(=O)N(C6CCC(=O)NC6=O)C7=O)CC5)C4)nc3)cc21 (stereo partly drawn) [Compound 385, 2-(2,6-dioxopiperidin-3-yl)-5-(3-(4-((1r,3r)-3-((5-(5-methyl-5H-pyrido[4,3-b]indol-7-yl)pyridin-2-yl)oxy)cyclobutoxy)piperidin-1-yl)propoxy)isoindoline-1,3-dione]	> 50	
CN(C)c1ccn2cc(-c3ccc(OCCOCCOCCOc4ccc5c(c4)C(=O)N(C4CCC(=O)NC4=O)C5=O)cc3)nc2c1 (stereo not drawn) [Compound 440, 5-(2-(2-(2-(4-(7-(dimethylamino)imidazo [1,2-a]pyridin-2-yl)phenoxy)ethoxy)ethoxy)ethoxy)-2-(2,6-dioxopiperidin-3-yl)isoindoline-1,3-dione]	> 50	
Cn1c2ccncc2c2ccc(-c3ccc(O[C@H]4C[C@H](CN5CCC(CCCN6CC(Oc7ccc8c(c7)C(=O)N(C7CCC(=O)NC7=O)C8=O)C6)CC5)C4)nc3)cc21 (stereo partly drawn) [Compound 394, 2-(2,6-dioxopiperidin-3-yl)-5-((1-(3-(1-(((1r,3r)-3-((5-(5-methyl-5H-pyrido[4,3-b]indol-7-yl)pyridin-2-yl)oxy)cyclobutyl)methyl)piperidin-4-yl)propyl)azetidin-3-yl)oxy)isoindoline-1,3-dione]	> 50	
Cn1c2ccncc2c2ccc(-c3ccc(OC4CN(C5CCN(CCCCCOc6ccc7c(c6)C(=O)N(C6CCC(=O)NC6=O)C7=O)CC5)C4)nc3)cc21 (stereo not drawn) [Compound 424, 2-(2,6-dioxopiperidin-3-yl)-5-((5-(4-(3-((5-(5-methyl-5H-pyrido[4,3-b]indol-7-yl)pyridin-2-yl)oxy)azetidin-1-yl)piperidin-1-yl)pentyl)oxy) isoindoline-1,3-dione]	> 50	
Cn1c2ccncc2c2ccc(-c3ccc(OC4CC5(C4)CN(C(=O)CC4CCN(CC6CN(c7ccc8c(c7)C(=O)N(C7CCC(=O)NC7=O)C8=O)C6)CC4)C5)nc3)cc21 (stereo not drawn) [Compound 472, 2-(2,6-dioxopiperidin-3-yl)-5-(3-((4-(2-(6-((5-(5-methyl-5H-pyrido[4,3-b]indol-7-yl)pyridin-2-yl)oxy)-2-azaspiro[3.3]heptan-2-yl)-2-oxoethyl)piperidin-1-yl)methyl)azetidin-1-yl)isoindoline-1,3-dione]	< 50	
O=C1CCC(N2Cc3cc(N4CCN(CCC5CCN(c6ncc(-c7ccc8c9cnccc9n(C(F)F)c8c7)cc6C(F)(F)F)CC5)CC4)ccc3C2=O)C(=O)N1 (stereo not drawn) [Compound 543, 3-(5-(4-(2-(1-(5-(5-(difluoromethyl)-5H-pyrido[4,3-b]indol-7-yl)-3-(trifluoromethyl)pyridin-2-yl)piperidin-4-yl)ethyl)piperazin-1-yl)-1-oxoisoindolin-2-yl)piperidine-2,6-dione]	< 50	
CC(C)N(CC1CCN(c2ncc(-c3ccc4c5cnccc5n(C(F)F)c4c3)cc2F)CC1)[C@H]1C[C@H](Oc2ccc3c(c2)C(=O)N(C2CCC(=O)NC2=O)C3=O)C1 (stereo partly drawn) [Compound 581, 5-((1r,3r)-3-(((1-(5-(5-(difluoromethyl)-5H-pyrido[4,3-b]indol-7-yl)-3-fluoropyridin-2-yl)piperidin-4-yl)methyl)(isopropyl)amino)cyclobutoxy)-2-(2,6-dioxopiperidin-3-yl)isoindoline-1,3-dione]	< 50	
Cn1c2ccncc2c2ccc(-c3ccc(OC4CC5(C4)CN(C(=O)CN4CCC(OC6CN(c7ccc8c(c7)C(=O)N(C7CCC(=O)NC7=O)C8=O)C6)CC4)C5)nc3)cc21 (stereo not drawn) [Compound 462, 2-(2,6-dioxopiperidin-3-yl)-5-(3-((1-(2-(6-((5-(5-methyl-5H-pyrido[4,3-b]indol-7-yl)pyridin-2-yl)oxy)-2-azaspiro[3.3]heptan-2-yl)-2-oxoethyl)piperidin-4-yl)oxy)azetidin-1-yl)isoindoline-1,3-dione]	> 50	
O=C1CCC(N2C(=O)c3ccc(OCCN4CCC(OC5CN(c6ncc(-c7ccn8c(n7)nc7ccccc78)cc6C(F)(F)F)C5)CC4)cc3C2=O)C(=O)N1 (stereo not drawn) [Compound 483, 5-(2-(4-((1-(5-(benzo[4,5]imidazo[1,2-a]pyrimidin-2-yl)-3-(trifluoromethyl)pyridin-2-yl)azetidin-3-yl)oxy)piperidin-1-yl)ethoxy)-2-(2,6-dioxopiperidin-3-yl)isoindoline-1,3-dione]	> 50	

Results, then the compound that gave them:

remaining activity at 1 µM [1] [%]	remaining activity at 1 µM [2] [%]	SMILES
< 50		O=C1CCC(N2C(=O)c3ccc(N4CCN(CCCN5CCOC6(CCN(c7ccc8c9cnccc9n(C(F)F)c8c7)CC6)C5)CC4)cc3C2=O)C(=O)N1 (stereo not drawn) [Compound 575, 5-(4-(3-(9-(5-(difluoromethyl)-5H-pyrido[4,3-b]indol-7-yl)-1-oxa-4,9-diazaspiro[5.5]undecan-4-yl)propyl)piperazin-1-yl)-2-(2,6-dioxopiperidin-3-yl)isoindoline-1,3-dione]
	< 50	O=C1CCC(N2C(=O)c3cc(F)c(N4CCCN(CCC5CCN(c6ncc(-c7ccc8c9cnccc9n(C(F)F)c8c7)cc6F)CC5)CC4)cc3C2=O)C(=O)N1 (stereo not drawn) [Compound 639, 5-(4-(2-(1-(5-(5-(difluoromethyl)-5H-pyrido[4,3-b]indol-7-yl)-3-fluoropyridin-2-yl)piperidin-4-yl)ethyl)-1,4-diazepan-1-yl)-2-(2,6-dioxopiperidin-3-yl)-6-fluoroisoindoline-1,3-dione]
< 50		O=C1CCC(N2C(=O)c3ccc(N4CCN(CCC5CCN(c6ncc(-c7ccc8c9cc(F)cnc9n(C(F)F)c8c7)cc6F)CC5)CC4)cc3C2=O)C(=O)N1 (stereo not drawn) [Compound 597, 5-(4-(2-(1-(5-(9-(difluoromethyl)-3-fluoro-9H-pyrido[2,3-b]indol-7-yl)-3-fluoropyridin-2-yl)piperidin-4-yl)ethyl)piperazin-1-yl)-2-(2,6-dioxopiperidin-3-yl)isoindoline-1,3-dione]
	< 50	COc1ccc2nc(/C=C/C=C/c3ccc(OCCOCCOCCOCCOc4ccc5c(c4)C(=O)N(C4CCC(=O)NC4=O)C5=O)nc3)sc2c1 (stereo not drawn) [Compound 628, 2-(2,6-dioxopiperidin-3-yl)-5-(2-(2-(2-(2-((5-((1E,3E)-4-(6-methoxybenzo[d]thiazol-2-yl)buta-1,3-dien-1-yl)pyridin-2-yl)oxy)ethoxy)ethoxy)ethoxy)ethoxy) isoindoline-1,3-dione]
< 50		CN(C)c1cccc2cnc(-n3ccc4cc(N5CCC(CCN6CCN(c7cc8c(cc7F)C(=O)N(C7CCC(=O)NC7=O)C8=O)CC6)CC5)ncc43)cc12 (stereo not drawn) [Compound 653, 5-(4-(2-(1-(1-(5-(dimethylamino)isoquinolin-3-yl)-1H-pyrrolo[2,3-c]pyridin-5-yl)piperidin-4-yl)ethyl)piperazin-1-yl)-2-(2,6-dioxopiperidin-3-yl)-6-fluoroisoindoline-1,3-dione]
< 50		CC(C)(CC1CCN(c2ncc(-c3ccc4c5cnccc5n(C(F)F)c4c3)cc2F)CC1)N1CCN(c2ccc3c(c2)C(=O)N(C2CCC(=O)NC2=O)C3=O)CC1 (stereo not drawn) [Compound 677, 5-(4-(1-(1-(5-(5-(difluoromethyl)-5H-pyrido[4,3-b]indol-7-yl)-3-fluoropyridin-2-yl)piperidin-4-yl)-2-methylpropan-2-yl)piperazin-1-yl)-2-(2,6-dioxopiperidin-3-yl)isoindoline-1,3-dione]
> 50		O=C1CCC(N2C(=O)c3ccc(OCCC4CCN(C[C@H]5C[C@H](Oc6cc(Nc7ccc8ncccc8n7)ccn6)C5)CC4)cc3C2=O)C(=O)N1 (stereo partly drawn) [Compound 577, 5-(2-(1-(((1r,3r)-3-((4-((1,5-napthyridin-2-yl)amino)pyridin-2-yl)oxy)cyclobutyl)methyl)piperidin-4-yl)ethoxy)-2-(2,6-dioxopiperidin-3-yl)isoindoline-1,3-dione]
	< 50	O=C1CCC(N2C(=O)c3cc(F)c(OCCN4CC5(C4)CN(C[C@H]4C[C@H](Oc6ncc(-c7ccc8c9cnccc9n(C(F)F)c8c7)cc6F)C4)C5)cc3C2=O)C(=O)N1 (stereo partly drawn) [Compound 646, 5-(2-(6-(((1r,3r)-3-((5-(5-(difluoromethyl)-5H-pyrido[4,3-b]indol-7-yl)-3-fluoropyridin-2-yl)oxy)cyclobutyl)methyl)-2,6-diazaspiro[3.3]heptan-2-yl)ethoxy)-2-(2,6-dioxopiperidin-3-yl)-6-fluoroisoindoline-1,3-dione]
	< 50	O=C1CCC(N2C(=O)c3cc(F)c(N4CC5(CN(CCC6CCN(c7ncc(-c8ccc9c%10cnccc%10n(C(F)F)c9c8)cc7F)CC6)C5)C4)cc3C2=O)C(=O)N1 (stereo not drawn) [Compound 642, 5-(6-(2-(1-(5-(5-(difluoromethyl)-5H-pyrido[4,3-b]indol-7-yl)-3-fluoropyridin-2-yl)piperidin-4-yl)ethyl)-2,6-diazaspiro[3.3]heptan-2-yl)-2-(2,6-dioxopiperidin-3-yl)-6-fluoroisoindoline-1,3-dione]
